The results in this text go back to PubChem BioAssay (NCI).

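Step 1: Grow cells in 96-well plates. Step 2: Expose to compound for 48 hours at 5 concentrations. Step 3: Interpolate endpoints linearly; if unreached, use highest concentration. GI50 is the concentration that inhibits growth by half. The concentration for full growth arrest is given as TGI.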

Among the test systems are SNB-75 CNS; A498 renal; COLO 205 colon; SNB-19 CNS; OVCAR-4 ovarian; SK-OV-3 ovarian; MALME-3M melanoma; KM12 colon; RPMI-8226 leukemia.
Assay in all cases: inhibition of tumour cell growth, NCI panel, 48 h

As to `O=C1CCC(=O)N2CCCCN12`, the TGI in the test with SNB-75 CNS, in the test on A498 renal, in the test with COLO 205 colon, in the test with SNB-19 CNS, with OVCAR-4 ovarian and in the test with SK-OV-3 ovarian was > 100 µM each time. The TGI with MALME-3M melanoma and in the test with KM12 colon was > 100 µM in each case.

Turning to `O=C(O)CNS(=O)(=O)c1ccc(NCc2ccccc2)cc1`, the TGI in the test with SNB-75 CNS, in the test with COLO 205 colon, in the test with SNB-19 CNS, in the test on OVCAR-4 ovarian, in the test on RPMI-8226 leukemia and in the test with SK-OV-3 ovarian was > 100 µM in each case. In addition, in the test with MALME-3M melanoma, the TGI is > 100 µM.

Turning to `COc1ccc(/C=C/CN(C)CCc2ccccc2)cc1OC`, the TGI with SNB-75 CNS, in the test on COLO 205 colon, in the test on SNB-19 CNS, in the test on RPMI-8226 leukemia, in the test on MALME-3M melanoma and in the test with KM12 colon was > 100 µM each time.

As to `C=C1C(=O)O[C@H]2[C@H]1CC/C(Cn1cc(-c3ccc(OC)cc3)nn1)=C\CC[C@@]1(C)O[C@@H]21`, the GI50 is 1470 nM in the test with SNB-75 CNS; 2350 nM in the test with A498 renal; 504 nM in the test on COLO 205 colon; 6.92 µM with SNB-19 CNS; 1520 nM in the test with OVCAR-4 ovarian; 1870 nM with RPMI-8226 leukemia. In addition, the figures for the GI50 with SK-OV-3 ovarian, with MALME-3M melanoma and in the test on KM12 colon were 16.3 µM, 1670 nM and 3.51 µM, respectively. Moreover, the TGI in the test on SNB-75 CNS turned out to be 3.28 µM; in the test on A498 renal it was 11.3 µM; with COLO 205 colon, 1.95 µM; in the test with SNB-19 CNS, 21.4 µM; in the test with OVCAR-4 ovarian, 3.33 µM; in the test on RPMI-8226 leukemia, 5.15 µM. Also, the TGI was 29.9 µM with SK-OV-3 ovarian, 3.4 µM with MALME-3M melanoma and 14.2 µM in the test with KM12 colon.

Regarding `COC(=O)C1Cc2c(n(Cc3ccccc3)c3ccccc23)C(CCC(=O)O)N1C(C)C` (stereo unspecified), the TGI in the test with SNB-75 CNS, in the test with A498 renal, with COLO 205 colon, in the test on SNB-19 CNS, in the test with OVCAR-4 ovarian and in the test on SK-OV-3 ovarian was > 100 µM in each case. The TGI in the test on MALME-3M melanoma and in the test on KM12 colon was > 100 µM in each case.

For `C/C(CC(=O)Nc1cc(Cl)c(Cl)cc1Cl)=N\NC(N)=O`, the TGI in the test on SNB-75 CNS, with COLO 205 colon, in the test on RPMI-8226 leukemia, with SK-OV-3 ovarian, with MALME-3M melanoma and in the test on KM12 colon was > 100 µM throughout.

On to `CCC[CH2][Sn]1([CH2]CCC)[O]Cc2nc(C)ccc2[O]1`, for which the GI50 was 4630 nM in the test on SNB-75 CNS; 13300 nM in the test with A498 renal; 4380 nM in the test on COLO 205 colon; 3.95 µM with SNB-19 CNS; 3950 nM with OVCAR-4 ovarian; 1990 nM in the test with RPMI-8226 leukemia. Further, the GI50 was 15.8 µM in the test with SK-OV-3 ovarian, 5030 nM in the test with MALME-3M melanoma and 11.1 µM in the test on KM12 colon. Besides, the TGI in the test on SNB-75 CNS amounted to 18.8 µM; in the test on A498 renal, 26.8 µM; with COLO 205 colon, 15.9 µM; in the test with SNB-19 CNS it was 14.9 µM; in the test with OVCAR-4 ovarian, 17.6 µM; in the test with RPMI-8226 leukemia, 6.87 µM. For the same molecule, the figures for the TGI in the test on SK-OV-3 ovarian, in the test with MALME-3M melanoma and in the test with KM12 colon were 29.7 µM, 14.5 µM and 23 µM, respectively.

On to `O=C(/N=N/C(=O)OCc1ccccc1)OCc1ccccc1`, for which the TGI in the test on SNB-75 CNS, with COLO 205 colon, in the test with SNB-19 CNS, in the test on OVCAR-4 ovarian, in the test on RPMI-8226 leukemia and in the test on SK-OV-3 ovarian was > 100 µM throughout. In addition, the TGI with MALME-3M melanoma and in the test with KM12 colon was > 100 µM throughout.

For `CC(C)(C)C1C=C(Sc2ccccc2)C(=O)O1` (stereo unspecified), the TGI in the test with SNB-75 CNS is 83.8 µM; in the test with A498 renal, > 100 µM; with COLO 205 colon, 54.4 µM; in the test on SNB-19 CNS it was > 100 µM; with OVCAR-4 ovarian it was > 100 µM; with RPMI-8226 leukemia, > 100 µM. Also, the TGI in the test on SK-OV-3 ovarian, with MALME-3M melanoma and with KM12 colon was > 100 µM in each case.

As to `Cc1cccc(C)c1NC(=O)C(=O)C1C(=O)NC(=O)NC1=O`, the TGI with A498 renal, with COLO 205 colon, with SNB-19 CNS, in the test on OVCAR-4 ovarian, with RPMI-8226 leukemia and in the test with SK-OV-3 ovarian was > 100 µM throughout. Also, the TGI in the test with MALME-3M melanoma and in the test on KM12 colon was > 100 µM in each case.

For `COC(=O)/C(=N/NC(=O)C[N+](C)(C)C)C(C(=O)OC)C(=O)C(=O)Nc1ccc(F)cc1` (stereo unspecified), the TGI in the test with SNB-75 CNS, in the test on A498 renal, in the test with COLO 205 colon, with SNB-19 CNS, in the test with OVCAR-4 ovarian and in the test with RPMI-8226 leukemia was > 100 µM in each case. The TGI in the test on SK-OV-3 ovarian, in the test with MALME-3M melanoma and with KM12 colon was > 100 µM in each case.

On to `O=C1O[C@@H](c2ccc3c(c2)OCO3)C2C(=O)O[C@@H](c3ccc4c(c3)OCO4)C12` (stereo partly specified), for which the TGI with SNB-75 CNS, with A498 renal, with COLO 205 colon, with SNB-19 CNS, with OVCAR-4 ovarian and in the test with RPMI-8226 leukemia was > 100 µM in each case. For the same molecule, the TGI in the test on SK-OV-3 ovarian and in the test on KM12 colon was > 100 µM in each case.

In the case of `CN1CCN(C(=O)OCc2nc3c(N4CCOCC4)nc(Cl)nc3n2C)CC1`, the GI50 was 1350 nM in the test on SNB-75 CNS; 1150 nM in the test with A498 renal; 1440 nM in the test on COLO 205 colon; 1.65 µM in the test on SNB-19 CNS; 1060 nM in the test with OVCAR-4 ovarian; 330 nM with RPMI-8226 leukemia. The GI50 was 6.15 µM in the test on SK-OV-3 ovarian, 1500 nM in the test with MALME-3M melanoma and 2.05 µM in the test on KM12 colon. Further, the TGI in the test on SNB-75 CNS was determined as 2.73 µM; in the test with A498 renal, 2.46 µM; with COLO 205 colon it was 4.1 µM; in the test with SNB-19 CNS, 3.62 µM; in the test with OVCAR-4 ovarian, 2.27 µM; with RPMI-8226 leukemia, 1.63 µM. Also, the results for the TGI in the test on SK-OV-3 ovarian, in the test with MALME-3M melanoma and in the test on KM12 colon were 18.8 µM, 2.87 µM and 6.08 µM, respectively.
